We go through 1 compound from patent US20250154180A1, “CRK-LIKE (CRKL) ADAPTOR PROTEIN INHIBITORS AND METHODS OF MAKING AND USING THE SAME” (Rutgers, The State University of New Jersey, priority 2022, published 2025).

For test [1], the system named is pCrkL, P-ERK1/2, pJNK, BIM in MDA-231 and MDA-468 cells. Nature of the test: Western blotting of pCrkL and downstream proteins, breast cancer cells. The format is cell-based. The protocol: Western blotting—According to the company's protocol (Thermo Scientific, Waltham, MA). Western blotting was performed using 20 μg of total cell extracts. Briefly, transferred membranes were incubated with primary antibodies for […] according to the sensitivity of each antibody, followed by HRP-linked secondary antibody for 1 hour. Each membrane was stripped and re-probed for b-actin, which was used as an internal loading control. The protein bands were visualized using a chemiluminescence detection system (Thermo Scientific). The relative optical densities of each band were quantitated and indicated numerically below the bands in each Western blot.
To investigate the molecular mechanisms of Pomiferin-induced apoptosis in breast cancer cells. […] Cell proliferation was first determined by MTT assay as confirmation. […] CrkL is known to mediate the activation of both Raf/ERK and PI3K pathways. So, proteins that relate to these two pathways were utilized.
The Integrated Density Values (IDV) of each band were measured and shown under each blot. […] Inhibition of pCrkL breaks the balance of cell proliferation and death in triple-negative breast cancer cells by regulating these signaling transduction pathways (FIG. 15). The different expression of these proteins in TNBC vs. normal immune cells makes Pomiferin and compounds disclosed herein a candidate for cancer therapy.

Another test relates to Hs578T cells. Nature of the test: MTT proliferation assay, Hs578T. The format is cell-based. The settings on record: 2.5 μM, 48 hours, vs DMSO. The protocol: MTT assay—The MTT assay was used to detect cell proliferation. Briefly, cells were plated in a 96-well plate at a density of 50,000 cells/well in 200 μl of culture medium with candidate drugs to be tested (DMSO as a negative control). The treated cells were incubated for four hours a 37° C. with a 5% CO2 incubator to allow dark crystals to form at the bottom of the wells. After culturing for 48 hours, […] of MTT reagent was added to each well and mixed gently for one minute. After aspirating the culture medium from each well, 100 μl of crystal dissolving solution was added to each well and incubated for 10 minutes at RT. The signal was quantified by measuring the absorbance in each sample at 570 nm using a microplate reader.

Test [2] concerns pCrkL in MDA-MB-231-LUC cells. Nature of the test: Flow cytometry of intracellular pCrkL/CrkL, MDA-MB-231-LUC. In kind it is cell-based. The note with it: three M Pomiferin for six days. An excerpt:
The cells were labeled with total CrkL or phosphor-CrkL by Alexa Fluor 647 (AF-647) and stained with secondary antibodies conjugated with AF-647 as staining control. […] The star symbol indicates the significance of vehicle vs. Pomiferin of the indicated concentration. *p<0.05, **p<0.005, ***p<0.0005. Data represent mean±SEM, n=4.
The intracellular pCrkL level from breast cancer cell lines between Pomiferin-treated and vehicle control groups was examined.

In a further test the test system is Sk-Hep1 tumor. Nature of the test: HCC Sk-Hep1 xenograft model. In kind it is in vivo, NSG mice. An excerpt: To further test whether the tumor growth inhibition effect of NC5 applied to other solid tumors, the HCC-Sk-Hep1cell line and PDAC-BXPC3 cell line xenograft models were used. Subcutaneous injection of 1.5×10^6 SK-Hep1 or BXPC3 cells in NSG mice, Six-ten days after tumor cell injection, the palpable tumor in NSG mice was confirmed.
To test the effects of the disclosed compounds on the xenograft mouse models, the HCC-Sk-Hep1 cell line xenograft model in NSG mice and 4T1-Luc orthotopic syngeneic breast tumor model in Balb/c mice was used. After confirming the palpable tumor in NSG or Balb/c mice. […] Compound III is referred to as “NC5-140-1” and Compound I is referred to as “NC5-140-2” in FIGS. 11A-11C.

Consider `CC(C)=CCc1c2c(c3occ(-c4ccc(O)c(O)c4)c(=O)c3c1O)C=CC(C)(C)O2` [Pomiferin, 3′,4′,5-Trihydroxy-6″,6″-dimethyl-6-(3-methylbut-2-en-1-yl)-6″H-pyrano[2″,3″:7,8]isoflavone], for which, in test [1] (NC5 1, 5, 10 uM, 24 hours), the “P-ERK1/2 levels (Western blotting)” value is “reduces P-ERK1/2 levels” and the “pCrkL levels (Western blotting)” value is recorded as “dramatically inhibited”. For the same compound, in test [1] (NC5, 24 hours), the “BIM levels (Western blotting)” value was “dramatically increased” and the “pJNK levels (Western blotting)” value is “dramatically increased”. Further, the “cell proliferation (MTT)” value in the test on Hs578T cells was “had an inhibitory effect on proliferation”. Besides, the “total CrkL expression” value in test [2] is on record as “not many differences in total CrkL expression”. Besides, the “intracellular pCrkL level” value in test [2] (vs vehicle) is listed as “reduced the intracellular pCrkL level”. In addition, the tumor growth result in the test on Sk-Hep1 tumor (Pomiferin administered orally, two-group study) is given as “suppressed”. In the test with Sk-Hep1 tumor (four-group study, 5.0 μg/g oral gavage), the tumor growth result was “inhibit tumor growth”. The median survival in the test with Sk-Hep1 tumor (four-group study, 5.0 μg/g oral gavage, vehicle 26 days) was 34 days. Moreover, in the test on Sk-Hep1 tumor (four-group study, administered orally), the “tumor sizes before day 25 of inoculation” value was “no significant difference in tumor sizes”. The “median survival, fold longer than vehicle control” value with Sk-Hep1 tumor (two-group study) is 1.54 fold. Further, the median survival in the test with Sk-Hep1 tumor (two-group study, 5.0 μg/g oral, vehicle 24 days) is reported as 37 days.
